In patent US20150141506A1, “INDANE DIMERS FOR USE IN THE TREATMENT OF AUTOIMMUNE INFLAMMATORY DISEASE” (Venantius Limited, priority 2012, published 2015):

Test system: IL2 release from Jurkat cells
Test: Effect of compounds on IL-2 secretion in T lymphocytes (Jurkat 6.1, anti-CD3/anti-CD28 stimulated, ELISA)
Format: cell-based
Details: for IL-2 production, absolute values: 30 min pre-treatment, DMSO control 320.67 (plate 2), 338.25 (plate 3); for IL-2 production, absolute values / activity at 1 µM / activity at 10 µM: 24 h; for activity at 1 µM / activity at 10 µM: Homo sapiens, Jurkat, read-out: IL2 release as percentage of anti-CD3/CD28 stimulated release in presence of DMSO, Mean; for effect on IL2 release, in words: 1 and 10 μM
Protocol: The T cell line Jurkat 6.1 (ATCC) was used. Cells were pre-treated for 30 min with 1 μM or 10 μM of the respective compound and then stimulated with plate-bound anti-CD3 (BD Pharmingen) and anti-CD28 (AnCell). DMSO was used as vehicle control. […] After 24 hs the supernatant was collected and IL-2 secretion was measured by ELISA.
Compounds were prepared by dissolution in DMSO to yield final concentrations of 1 and 10 μg/ml

In the case of `CC(C)[C@H](N)C(=O)O[C@H]1c2ccccc2C[C@]1(Cc1ccc(C(=O)O)cc1)C1=Cc2ccccc2C1` [Compound 25, 4-{[(1′R,2′R)-1′-(L-valyloxy)-1′,3′-dihydro-1H,2′H-2,2′-biinden-2′-yl]methyl}benzoic acid], the “IL-2 production, absolute values” (compound 1 uM) is reported as 208.38 pg/mL and the “IL-2 production, absolute values” (compound 10 uM) is reported as 174.25 pg/mL.

`O=C(NCCO)c1ccc(C[C@]2(C3=Cc4ccccc4C3)Cc3ccccc3[C@@H]2O)cc1` [Compound 14, 4-{[(1′R,2′R)-1′-hydroxy-1′,3′-dihydro-1H,2′H-2,2′-biinden-2′-yl]methyl}-N-(2-hydroxyethyl)benzamide] was tested, and the “IL-2 production, absolute values” (compound 1 uM) was 214.44 pg/mL and the “IL-2 production, absolute values” (compound 10 uM) was 146.44 pg/mL.

For `CCOC(=O)c1ccc(C[C@]2(C3=Cc4ccccc4C3)Cc3ccccc3[C@@H]2O)cc1` [Compound 11, ethyl 4-(((1R,2R)-1-hydroxy-2,3-dihydro-1H,1′H-[2,2′-biinden]-2-yl)methyl)benzoate], the “IL-2 production, absolute values” (compound 1 uM) was 272.22 pg/mL and the “IL-2 production, absolute values” (compound 10 uM) was 105.11 pg/mL.

In the case of `CC(C)C[C@H](N)C(=O)O[C@@H]1c2ccccc2C[C@@]1(Cc1ccc(C(N)=O)cc1)C1=Cc2ccccc2C1` [Compound 42, (1S,2S)-2-(4-carbamoylbenzyl)-2,3-dihydro-1H,1′H-2,2′-biinden-1-yl L-leucinate], the activity at 1 µM is reported as 76.1%, the activity at 10 µM is reported as 30% and the “IL-2 production, absolute values” (compound 1 uM) is reported as 77.71 pg/mL. The “IL-2 production, absolute values” (compound 10 uM) was 49.57 pg/mL.

For `CC[C@H](C)[C@H](N)C(=O)O[C@@H]1c2ccccc2C[C@@]1(Cc1ccc(C(=O)O)cc1)C1=Cc2ccccc2C1` [Compound 30, 4-{[(1′S,2′S)-1′-(L-isoleucyloxy)-1′,3′-dihydro-1H,2′H-2,2′-biinden-2′-yl]methyl}benzoic acid], the “IL-2 production, absolute values” (compound 1 uM) was 191.63 pg/mL and the “IL-2 production, absolute values” (compound 10 uM) was 174.50 pg/mL.

For `COC(=O)c1ccc(C[C@@]2(C3=Cc4ccccc4C3)Cc3ccccc3[C@H]2O)cc1` [Compound 17, methyl 4-(((1S,2S)-1-hydroxy-2,3-dihydro-1H,1′H-[2,2′-biinden]-2-yl)methyl)benzoate], the “IL-2 production, absolute values” (compound 1 uM) was 168.44 pg/mL.

With `CN(C)C(=O)c1ccc(C[C@]2(C3=Cc4ccccc4C3)Cc3ccccc3[C@@H]2O)cc1` [Compound 16, 4-{[(1′R,2′R)-1′-hydroxy-1′,3′-dihydro-1H,2′H-2,2′-biinden-2′-yl]methyl}-N,N-dimethylbenzamide] the “IL-2 production, absolute values” (compound 1 uM) was 243.00 pg/mL and the “IL-2 production, absolute values” (compound 10 uM) was 171.78 pg/mL.

In the case of `COC(=O)c1ccc(C[C@@]2(C3=Cc4ccccc4C3)Cc3ccccc3[C@H]2OC(=O)[C@@H](N)CC(C)C)cc1` [Compound 39, methyl 4-(((1S,2S)-1-(((S)-2-amino-4-methylpentanoyl)oxy)-2,3-dihydro-1H,1′H-[2,2′-biinden]-2-yl)methyl)benzoate], the activity at 1 µM is reported as 73.7%, the activity at 10 µM is reported as 21.7% and the “IL-2 production, absolute values” (compound 1 uM) is reported as 105.94 pg/mL. The “IL-2 production, absolute values” (compound 10 uM) was 40.69 pg/mL.

For `NCC(=O)O[C@H]1c2ccccc2C[C@]1(Cc1ccc(C(=O)O)cc1)C1=Cc2ccccc2C1` [Compound 27, 4-{[(1′R,2′R)-1′-(glycyloxy)-1′,3′-dihydro-1H,2′H-2,2′-biinden-2′-yl]methyl}benzoic acid], the “effect on IL2 release, in words” value was “potentiates release of IL2”, the “IL-2 production, absolute values” (compound 1 uM) was 350.13 pg/mL and the “IL-2 production, absolute values” (compound 10 uM) was 172.88 pg/mL.

With `CC(C)C[C@H](N)C(=O)O[C@H]1c2ccccc2C[C@]1(Cc1ccc(C(N)=O)cc1)C1=Cc2ccccc2C1` [Compound 35, (1R,2R)-2-(4-carbamoylbenzyl)-2,3-dihydro-1H,1′H-2,2′-biinden-1-yl L-leucinate] the “effect on IL2 release, in words” value was “inactive”, the activity at 1 µM was 149% and the activity at 10 µM was 95.5%. The “IL-2 production, absolute values” (compound 1 uM) was 238.88 pg/mL and the “IL-2 production, absolute values” (compound 10 uM) was 189.38 pg/mL.

In the case of `O=C(Nc1ccc(O)c(C(=O)O)c1)c1ccc(C[C@]2(C3=Cc4ccccc4C3)Cc3ccccc3[C@@H]2O)cc1` [Compound 46, 2-hydroxy-5-(4-(((1R,2R)-1-hydroxy-2,3-dihydro-1H,1′H-[2,2′-biinden]-2-yl)methyl)benzamido)benzoic acid], the “IL-2 production, absolute values” (compound 1 uM) is reported as 92.21 pg/mL and the “IL-2 production, absolute values” (compound 10 uM) is reported as 72.07 pg/mL.

`CC(C)C[C@H](N)C(=O)O[C@H]1c2ccccc2C[C@]1(Cc1ccc(C(=O)NCCO)cc1)C1=Cc2ccccc2C1` [Compound 36, (1R,2R)-2-{4-[(2-hydroxyethyl)carbamoyl]benzyl}-2,3-dihydro-1H,1′H-2,2′-biinden-1-yl L-leucinate] was tested, and the activity at 1 µM was 96%, the activity at 10 µM was 56.3% and the “IL-2 production, absolute values” (compound 1 uM) was 207.38 pg/mL. For the same compound, the “IL-2 production, absolute values” (compound 10 uM) was 138.13 pg/mL.

`CNC(=O)c1ccc(C[C@@]2(C3=Cc4ccccc4C3)Cc3ccccc3[C@H]2O)cc1` [Compound 22, 4-{[(1′S,2′S)-1′-hydroxy-1′,3′-dihydro-1H,2′H-2,2′-biinden-2′-yl]methyl}-N-methylbenzamide] was tested, and the “IL-2 production, absolute values” (compound 1 uM) was 198.56 pg/mL and the “IL-2 production, absolute values” (compound 10 uM) was 113.33 pg/mL.

With `O=C(NCCO)c1ccc(C[C@@]2(C3=Cc4ccccc4C3)Cc3ccccc3[C@H]2O)cc1` [Compound 21, 4-{[(1′S,2′S)-1′-hydroxy-1′,3′-dihydro-1H,2′H-2,2′-biinden-2′-yl]methyl}-N-(2-hydroxyethyl)benzamide] the “IL-2 production, absolute values” (compound 1 uM) was 210.89 pg/mL and the “IL-2 production, absolute values” (compound 10 uM) was 137.78 pg/mL.

In the case of `NC(=O)c1ccc(C[C@]2(C3=Cc4ccccc4C3)Cc3ccccc3[C@@H]2O)cc1` [Compound 13, 4-{[(1′R,2′R)-1′-hydroxy-1′,3′-dihydro-1H,2′H-2,2′-biinden-2′-yl]methyl}benzamide], the “IL-2 production, absolute values” (compound 1 uM) is reported as 276.78 pg/mL and the “IL-2 production, absolute values” (compound 10 uM) is reported as 151.78 pg/mL.

For `COC(=O)c1ccc(C[C@]2(C3=Cc4ccccc4C3)Cc3ccccc3[C@@H]2O)cc1` [Compound 10, methyl 4-(((1R,2R)-1-hydroxy-2,3-dihydro-1H,1′H-[2,2′-biinden]-2-yl)methyl)benzoate], the “IL-2 production, absolute values” (compound 1 uM) was 185.56 pg/mL.

For `CCCOC(=O)c1ccc(C[C@@]2(C3=Cc4ccccc4C3)Cc3ccccc3[C@H]2OC(=O)[C@@H](N)CC(C)C)cc1` [Compound 41, propyl 4-(((1S,2S)-1-(((S)-2-amino-4-methylpentanoyl)oxy)-2,3-dihydro-1H, 1′H-[2,2′-biinden]-2-yl)methyl)benzoate], the activity at 1 µM was 77%, the activity at 10 µM was 42.1% and the “IL-2 production, absolute values” (compound 1 uM) was 99.50 pg/mL. For the same compound, the “IL-2 production, absolute values” (compound 10 uM) was 62.50 pg/mL.

With `CNC(=O)c1ccc(C[C@@]2(C3=Cc4ccccc4C3)Cc3ccccc3[C@H]2OC(=O)[C@@H](N)CC(C)C)cc1` [Compound 44, (1S,2S)-2-[4-(methylcarbamoyl)benzyl]-2,3-dihydro-1H,1′H-2,2′-biinden-1-yl L-leucinate] the activity at 1 µM was 76.2%, the activity at 10 µM was 21% and the “IL-2 production, absolute values” (compound 1 uM) was 72.50 pg/mL. For the same compound, the “IL-2 production, absolute values” (compound 10 uM) was 12.43 pg/mL.

`CCOC(=O)c1ccc(C[C@]2(C3=Cc4ccccc4C3)Cc3ccccc3[C@@H]2OC(=O)[C@@H](N)CC(C)C)cc1` [Compound 33, ethyl 4-(((1R,2R)-1-(((S)-2-amino-4-methylpentanoyl)oxy)-2,3-dihydro-1H,1′H-[2,2′-biinden]-2-yl)methyl)benzoate] was tested, and the activity at 1 µM was 89.4%, the activity at 10 µM was 43.6% and the “IL-2 production, absolute values” (compound 1 uM) was 186.25 pg/mL. For the same compound, the “IL-2 production, absolute values” (compound 10 uM) was 74.38 pg/mL.

In the case of `CNC(=O)c1ccc(C[C@]2(C3=Cc4ccccc4C3)Cc3ccccc3[C@@H]2O)cc1` [Compound 15, 4-{[(1′R,2′R)-1′-hydroxy-1′,3′-dihydro-1H,2′H-2,2′-biinden-2′-yl]methyl}-N-methylbenzamide], the “IL-2 production, absolute values” (compound 1 uM) is reported as 207.78 pg/mL and the “IL-2 production, absolute values” (compound 10 uM) is reported as 113.67 pg/mL.

`CC(C)C[C@H](N)C(=O)O[C@@H]1c2ccccc2C[C@@]1(Cc1ccc(C(=O)N(C)C)cc1)C1=Cc2ccccc2C1` [Compound 45, (1S,2S)-2-[4-(dimethylcarbamoyl)benzyl]-2,3-dihydro-1H,1′H-2,2′-biinden-1-yl L-leucinate] was tested, and the “effect on IL2 release, in words” value was “greatest inhibition of IL2 release”, the activity at 1 µM was 51.5% and the activity at 10 µM was 1.5%. The “IL-2 production, absolute values” (compound 1 uM) was 56.07 pg/mL and the “IL-2 production, absolute values” (compound 10 uM) was 14.29 pg/mL.

In the case of `CCCOC(=O)c1ccc(C[C@]2(C3=Cc4ccccc4C3)Cc3ccccc3[C@@H]2O)cc1` [Compound 12, propyl 4-(((1R,2R)-1-hydroxy-2,3-dihydro-1H,1′H-[2,2′-biinden]-2-yl)methyl)benzoate], the “IL-2 production, absolute values” (compound 1 uM) is reported as 240.22 pg/mL and the “IL-2 production, absolute values” (compound 10 uM) is reported as 132.44 pg/mL.

`CC(C)[C@H](N)C(=O)O[C@@H]1c2ccccc2C[C@@]1(Cc1ccc(C(=O)O)cc1)C1=Cc2ccccc2C1` [Compound 29, 4-{[(1′S,2′S)-1′-(L-valyloxy)-1′,3′-dihydro-1H,2′H-2,2′-biinden-2′-yl]methyl}benzoic acid] was tested, and the “IL-2 production, absolute values” (compound 1 uM) was 220.50 pg/mL and the “IL-2 production, absolute values” (compound 10 uM) was 177.88 pg/mL.

For `COC(=O)c1ccc(C[C@]2(C3=Cc4ccccc4C3)Cc3ccccc3[C@@H]2OC(=O)[C@@H](N)CC(C)C)cc1` [Compound 32, methyl 4-(((1R,2R)-1-(((S)-2-amino-4-methylpentanoyl)oxy)-2,3-dihydro-1H,1′H-[2,2′-biinden]-2-yl)methyl)benzoate], the activity at 1 µM was 86.2%, the activity at 10 µM was 40.8% and the “IL-2 production, absolute values” (compound 1 uM) was 215.25 pg/mL. The “IL-2 production, absolute values” (compound 10 uM) was 74.88 pg/mL.
